Experimental data taken from patent US8153803B2, “Compositions and methods for modulating sirtuin activity” (The General Hospital Corporation, priority 2006, dated 2012).

Legend:
HeLa cells = test: Cell-based SIRT2 inhibition (α-tubulin acetylation, Western blot); parameters: species or system human
Description: Tubulin and sirtuin Western blot analysis: Samples were separated on 10% polyacrylamide gels and transferred to a 0.45 μm PVDF membrane (Millipore, Bedford Mass.). Membranes were blocked with a 5% milk solution in PBST. Blots were then probed with antibodies to either SIRT2 (Santa Cruz A-5 at 1:100), tubulin (Sigma, St. Louis Mo., B-5-1-2) or acetylated tubulin (Sigma, 6-11B-1), both at 1:5000. Secondary detection was performed using an HRP-conjugated anti-mouse antibody (Sigma) at 1:4000, and exposed using an ECL detection kit (PerkinElmer). […] The following morning, medium was removed and fresh medium containing compound was added to the wells. After 3 hours, medium was removed and cells were washed 3× with PBS. After the final wash, 100 μL of a hypotonic lysis buffer was added to each well, and the cells were lysed at 37° C. for 5 minutes. The lysates were transferred to eppendorf tubes and centrifuged at 16,000×g for 10 minutes at room temperature. The resulting supernatant contained soluble tubulin monomers, while the pellet contained the insoluble microtubule polymers. […] SDS sample buffer was added to all the samples, followed by Western blot analysis.

SIRT1 = biological target: T1, SIRT1 (Homo sapiens, UniProt Q96EB6); test: Fluorescent SIRT enzyme assay (recombinant enzyme, fluorescent peptide substrate); assay type: biochemical; settings: at compound concentrations of 40 μM or higher
T1 sequence (Q96EB6 1-747): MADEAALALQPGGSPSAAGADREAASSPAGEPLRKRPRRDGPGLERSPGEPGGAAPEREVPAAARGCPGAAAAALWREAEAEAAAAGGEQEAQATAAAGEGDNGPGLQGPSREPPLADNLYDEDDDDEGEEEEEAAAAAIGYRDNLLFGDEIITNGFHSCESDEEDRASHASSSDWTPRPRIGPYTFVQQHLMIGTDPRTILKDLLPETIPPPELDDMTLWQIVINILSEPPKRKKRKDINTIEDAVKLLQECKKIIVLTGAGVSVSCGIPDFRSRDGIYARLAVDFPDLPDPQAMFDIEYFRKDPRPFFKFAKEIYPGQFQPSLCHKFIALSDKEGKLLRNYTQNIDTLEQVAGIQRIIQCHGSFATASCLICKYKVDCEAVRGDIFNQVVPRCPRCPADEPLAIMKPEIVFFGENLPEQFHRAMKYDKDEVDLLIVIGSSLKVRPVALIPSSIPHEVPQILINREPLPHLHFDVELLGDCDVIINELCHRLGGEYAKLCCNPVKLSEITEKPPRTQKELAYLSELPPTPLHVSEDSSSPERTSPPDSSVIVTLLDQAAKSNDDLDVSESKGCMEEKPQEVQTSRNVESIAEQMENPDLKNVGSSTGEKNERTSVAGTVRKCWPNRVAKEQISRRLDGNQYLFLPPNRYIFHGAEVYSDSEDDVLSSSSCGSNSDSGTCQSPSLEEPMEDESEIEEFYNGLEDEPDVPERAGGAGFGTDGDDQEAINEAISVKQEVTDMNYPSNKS

[1] = system: H4 neuroglioma cells transfected with α-synuclein; test: α-Synuclein toxicity assay (adenylate kinase release, ToxiLight); assay type: cell-based, human; settings: H4 cells overexpressing α-synuclein
Description: Cell culture and transfection: HeLa cells were cultured in DMEM supplemented with 10% fetal bovine serum (FBS) and 2 mM L-glutamine. Human H4 neuroglioma cells (“H4 cells” HTB-148 from the American Type Culture Collection (ATCC), Manassas, Va., USA) were maintained in OPTI-MEM (Life Technologies, Grand Island, N.Y., USA) supplemented with 10% FBS. H4 cells were passaged 24 hours prior to transfection and plated in 24-well plates. The cells were transfected, using a pcDNA3.1hygro vector (Invitrogen) and […] (Qiagen, Chatsworth, Calif., USA) according to the manufacturer's instructions. Compounds or DMSO were added after the transfection procedure was concluded.
α-Synuclein toxicity assay: Toxicity was analyzed 24 hours after transfection by measuring the release of adenyate kinase from damaged cells into the culture medium using the ToxiLight™ kit (Cambrex, Walkersville, Md.) according to the manufaturer's protocol.

α-synuclein aggregates [2] = test: α-Synuclein aggregation phenotype in cells; assay type: cell-based; settings: correlated with functional rescue
[3] = system: H4 neuroglioma cells transfected with α-synuclein; settings: previously identified (WO 05/087217); cited from earlier work
SIRT2 = biological target: T2, SIRT2 (Homo sapiens, UniProt Q8IXJ6); test: Fluorescent SIRT enzyme assay (recombinant enzyme, fluorescent peptide substrate); assay type: biochemical
T2 construct: purchased Biomol (Plymouth Meeting, Pa.)
T2 sequence (Q8IXJ6 1-389): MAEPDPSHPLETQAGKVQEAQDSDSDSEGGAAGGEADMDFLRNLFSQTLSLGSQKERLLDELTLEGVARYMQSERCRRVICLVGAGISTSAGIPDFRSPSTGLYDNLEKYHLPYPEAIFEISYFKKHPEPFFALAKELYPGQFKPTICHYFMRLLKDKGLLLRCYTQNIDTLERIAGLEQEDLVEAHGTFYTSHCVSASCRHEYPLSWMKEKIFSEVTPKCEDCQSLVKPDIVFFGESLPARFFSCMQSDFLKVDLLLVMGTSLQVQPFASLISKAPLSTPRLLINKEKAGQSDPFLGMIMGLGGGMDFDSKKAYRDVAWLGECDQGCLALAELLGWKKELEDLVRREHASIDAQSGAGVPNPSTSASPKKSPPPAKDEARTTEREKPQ

α-synuclein aggregates [4] = settings: previously identified (WO 05/087217); cited from earlier work

inhibition of SIRT1 (SIRT1)	IC50 (SIRT2; recombinant SIRT2, fluorescent peptide substrate, read-out: IC50 against SIRT2)	selectivity for SIRT2 (SIRT2; versus other sirtuins tested (SIRT1, SIRT3))	SMILES	acetylation of α-tubulin in compound-treated cells (HeLa cells)	rescue of α-synuclein toxicity [1]	α-synuclein aggregates / inclusion size (α-synuclein aggregates [2])	inhibition of α-synuclein-mediated cellular toxicity [3]	α-synuclein aggregates / inclusions (α-synuclein aggregates [4])
slightly inhibits	–	–	N#C/C(=C\c1ccc(-c2cc(Cl)ccc2Cl)o1)C(=O)Nc1cccc2ncccc12 [AGK2]	increasing the acetylation of α-tubulin	can rescue α-synuclein toxicity	formation of large inclusions, while reducing number of small aggregates	–	–
–	–	–	O=C(Nc1cccc([N+](=O)[O-])c1)c1cccc(S(=O)(=O)N2CCCCCC2)c1 [AK-1, 3-(azepane-1-sulfonyl)-N-(3-nitro-phenyl)-benzamide]	–	prevented some α-synuclein toxicity	increased inclusion size	–	–
–	35 µM	selective inhibition of SIRT2	O=[N+]([O-])c1ccc(Sc2nnc(COc3ccccc3)n2-c2ccccc2)c2cccnc12 [B2]	–	–	–	inhibits α-synuclein-mediated cellular toxicity	decrease in the number of small α-synuclein aggregates and the formation of large inclusions
